Assay [1] is described as follows: Inhibition of porcine pancreatic elastase using N-succinyl-Ala-Ala-Ala-p-nitroanilide as substrate preincubated with enzyme for 15 mins followed by substrate addition and measured for 30 mins. On the set-up: species or system Sus scrofa.
Assay [2] addresses Replicase polyprotein 1ab (Severe acute respiratory syndrome coronavirus 2, UniProt P0DTD1). In words: Inhibition of SARS-CoV-2 3CLpro incubated for 4 hrs.
The next assay has as its target Chymotrypsinogen A (Bos taurus, UniProt P00766). Description: Inhibition of bovine pancreatic alpha chymotrypsin using N-succinyl-Gly-Gly-Phe-p-nitroanilide as substrate preincubated with enzyme for 10 mins followed by substrate addition and measured for 30 mins.
Assay [3] deals with MDA-MB-231. Description: Cytotoxicity against human MDA-MB-231 cells assessed as cell viability upto 100 uM incubated for 72 hrs by resazurin dye based fluorescence assay. The format is functional.
Assay [4] has as its system OVCAR. In words: Cytotoxicity against human OVCAR cells assessed as cell viability upto 100 uM incubated for 72 hrs by resazurin dye based fluorescence assay. The format is functional.
Assay [5] relates to HCT-116. Description: Cytotoxicity against human HCT-116 cells assessed as cell viability upto 100 uM incubated for 72 hrs by resazurin dye based fluorescence assay. The format is functional.
The subject of assay [6] is OVCAR. In words: Cytotoxicity against human OVCAR cells assessed as cell viability at > 20 uM incubated for 72 hrs by resazurin dye based fluorescence assay. Format: functional.
The next assay concerns KB. In words: Cytotoxicity against human KB cells assessed as reduction in cell viability. The format is functional, cell-based.
The subject of assay [7] is HCT-116. Description: Cytotoxicity against human HCT-116 cells assessed as cell viability at >20 uM incubated for 72 hrs by resazurin dye based fluorescence assay. The format is functional.
For a further assay, the system named is L1210. In words: Cytotoxicity against mouse L1210 cells assessed as reduction in cell viability. Format: functional, cell-based.
Assay [8] deals with MDA-MB-231. In words: Cytotoxicity against human MDA-MB-231 cells assessed as cell viability at >20 uM incubated for 72 hrs by resazurin dye based fluorescence assay. The format is functional.

Calls of active or inactive are those of the source. No cut-off for these calls is given here. Starred links: 1 amine or outer side, 2 acyl side, 3 side chain; linkers in the order of their positions; H or OH if unused. Positions of bridges follow the written chain, without caps; N, C: chain ends. Non-standard residues stand in square brackets, D forms with d. Residues, ends and D or L forms follow the SMILES beside them. X2 = O=C(/C=C/c1csc([C@H](Cc2ccc(O)cc2)N[*:1])n1)[*:2]; X1 = CC[C@H](C)[C@H](N[*:1])C(=O)C(=O)[*:2]; Cya = N[C@@H](CS(=O)(=O)O)C(=O)O; Nva = CCC[C@H](N)C(=O)O; Abu = CC[C@H](N)C(=O)O; Dap = NC[C@H](N)C(=O)O

Regarding `CC[C@H](C)[C@@H]1NC(=O)[C@H](CC(C)C)NC(=O)[C@@H](NC(=O)[C@H](C)N)CNC(=O)[C@H](CS(=O)(=O)O)NC(=O)/C=C/c2csc(n2)[C@H](Cc2ccc(O)cc2)NC(=O)C1=O` (H-A[Dap]L[X1][X2][Cya]; lactam 2-C), the values for the IC50 (in assay [1]; in assay [2]; against Chymotrypsinogen A) were 28 nM, 6100 nM and 2000 nM, respectively.

Turning to `CCC[C@@H]1NC(=O)[C@@H](N2C(=O)N[C@@H](C)C2=O)CNC(=O)[C@H](CS(=O)(=O)O)NC(=O)/C=C/c2csc(n2)[C@H](Cc2ccc(O)cc2)NC(=O)C(=O)[C@H]([C@@H](C)CC)NC1=O`, the IC50 in assay [1] was determined as 34.8 nM; against Chymotrypsinogen A, 2500 nM. Besides, the result in the assay on MDA-MB-231 [3], in the assay with OVCAR [4] and with HCT-116 [5] was inactive.

Consider `CC[C@H](C)[C@@H]1NC(=O)[C@H](CC(C)C)NC(=O)[C@@H](N2C(=O)N[C@@H](C)C2=O)CNC(=O)[C@H](CS(=O)(=O)O)NC(=O)/C=C/c2csc(n2)[C@H](Cc2ccc(O)cc2)NC(=O)C1=O`, for which the IC50 was determined as 17.6 nM in [1] and 1900 nM on Chymotrypsinogen A. Moreover, the outcome in the assay with MDA-MB-231 [3], with OVCAR [4] and in the assay with HCT-116 [5] was inactive.

For the molecule `CC[C@@H]1NC(=O)[C@@H](NC(=O)[C@H](C)N)CNC(=O)[C@H](CS(=O)(=O)O)NC(=O)/C=C/c2csc(n2)[C@H](Cc2ccc(O)cc2)NC(=O)C(=O)[C@H]([C@@H](C)CC)NC1=O` (H-A[Dap][Abu][X1][X2][Cya]; lactam 2-C), the results for the IC50 (in [1]; on Chymotrypsinogen A) were 16 nM and 1600 nM, respectively.

For `CC(C)C[C@@H]1NC(=O)[C@H](NC(=O)N[C@@H](Cc2ccccc2)C(=O)O)CCCCNC(=O)[C@H](Cc2ccccc2)NC(=O)[C@H](Cc2c[nH]c3cc(Cl)c(O)cc23)N(C)C(=O)[C@H](CC(C)C)NC1=O`, the IC50 in assay [1] worked out at 51.3 nM; in [2] it was 1100 nM; against Chymotrypsinogen A, 730 nM.

For `CC(C)C[C@@H]1NC(=O)[C@H](NC(=O)N[C@@H](Cc2ccccc2)C(=O)O)CCCCNC(=O)[C@H](Cc2ccccc2)NC(=O)[C@H](Cc2c[nH]c3cc(Cl)ccc23)N(C)C(=O)[C@H](CC(C)C)NC1=O`, the result in the assay on OVCAR [6], in the assay on HCT-116 [7] and with MDA-MB-231 [8] was Active. Besides, the IC50 in the assay with KB was 970 nM; in the assay on L1210, 500 nM; in assay [2] it was 4600 nM.

In the case of `CCC[C@@H]1NC(=O)[C@@H](NC(=O)[C@H](C)N)CNC(=O)[C@H](CS(=O)(=O)O)NC(=O)/C=C/c2csc(n2)[C@H](Cc2ccc(O)cc2)NC(=O)C(=O)[C@H]([C@@H](C)CC)NC1=O` (H-A[Dap][Nva][X1][X2][Cya]; lactam 2-C), the IC50 was 20.1 nM in [1], 16100 nM in [2] and 2400 nM against Chymotrypsinogen A.

As for `CC[C@@H]1NC(=O)[C@@H](N2C(=O)N[C@@H](C)C2=O)CNC(=O)[C@H](CS(=O)(=O)O)NC(=O)/C=C/c2csc(n2)[C@H](Cc2ccc(O)cc2)NC(=O)C(=O)[C@H]([C@@H](C)CC)NC1=O`, the IC50 in assay [1] came to 61.8 nM; against Chymotrypsinogen A it was 2700 nM. For the same molecule, the result with MDA-MB-231 [3], in the assay with OVCAR [4] and with HCT-116 [5] was inactive.

Consider `O=S(=O)(F)Cc1ccccc1` [PHENYLMETHYLSULFONYLFLUORIDE], for which the IC50 came out at 138 nM in assay [1] and 420 nM against Chymotrypsinogen A.

The values above are taken from ChEMBL document CHEMBL5390207, “Cyclotheonellazoles D-I, Potent Elastase Inhibitory Thiazole-Containing Cyclic Peptides from Theonella sp. (2131)” (J Nat Prod, 2023).
